Experimental data reported in patent US20180030091A1, “COLLAGEN-BINDING SYNTHETIC PEPTIDOGLYCANS FOR USE IN VASCULAR INTERVENTION” (Purdue Research Foundation, priority 2010, published 2018).
Entries after “also recorded” stand apart in the source; their conditions may differ. Where no end group is shown, it is not given here.

Tests used:
Fibrillar collagen [1] = assay: Peptidoglycan diffusion from collagen surface; type: binding; details: after 1 week of extensive rinsing at 37° C.; applied at 10 μM
Experimental: The peptidoglycan OS-SILY18-biotin was dissolved at 10 μM in 1×PBS pH 7.4 with 2% BSA and was incubated on fibrillar collagen coated plates prepared as described. The plate was incubated at 37° C. on an orbital shaker and was rinsed extensively with 1×PBS pH 7.4. At various time points up to 11 days, OS-SILY18-biotin was detected on the surface as described for the binding affinity studies. The curve of diffusion of peptidoglycan from the collagen surface was fitted using a hyperbolic decay.
The diffusion of the peptidoglycan DS-SILY18 from a collagen surface was measured by incubating at 37° C. and rinsing extensively in order to mimic blood flow in vivo. Peptidoglycan was incubated on fibrillar collagen surfaces and detected by the same methods for calculating binding affinities. […] It is estimated that complete endothelial cell regrowth occurs within 1 week of balloon injury, and thus this time frame is useful for preventing platelet binding until endothelial cells grow back and provide a permanent cover to the underlying collagen.

[2] = test system: Human platelets on Type I fibrillar collagen; assay: Inhibition of platelet activation on fibrillar collagen after 24 hour rinse (PF4, NAP2); type: cell-based; details: unbound peptidoglycan rinsed over 24 hours; PF-4 and Nap-2 release
Experimental: Type I fibrillar collagen from Chronolog was diluted in isotonic glucose to a concentration of 50 μg/mL. 50 μL of collagen solution was added to each well of a high bind 96-well plate. The plate was incubated overnight at 4° C., and then rinsed 3× with 1×PBS. For microplate assays, peptidoglycan was diluted in 1×PBS at concentrations between 0.0001 μM to 100 μM and 50 μL solution was added to the collagen coated wells. DS, peptide, or 1×PBS were also added to collagen coated wells as controls. Treatments were incubated at 37° C. with shaking at 200 rpm for 15 min. Wells were then rinsed of unbound treatment by removing the treatment solution, adding PBS, and shaking the wells for 24 hours. During the 24 hours, PBS solution was changed 3 times.
Human whole blood was collected from healthy volunteers by venipuncture. The first 5 mL of blood was discarded and approximately 20 mL was then collected into citrated glass vacutainers (BD Bioscience). Blood was centrifuged in the glass tube for 20 min at 200 g at 25° C. The top layer of the centrifuged blood, the platelet rich plasma (PRP), was used for platelet experiments.
PRP (50 μL/well) was added to the microplate for 1 hour at room temperature without shaking. After 1 hour of incubation, 45 μL of PRP was removed from each well and added to a microcentrifuge tube containing […] ETP (107 mM EDTA, 12 mM theophylline, and 2.8 mM prostaglandin E1) to inhibit further platelet activation. These tubes were spun at 4° C. for 30 min at 2000 g to pellet the platelets. The supernatant (platelet serum) was collected for ELISA studies to test for the presence of platelet activation markers PF-4 and NAP2. Sandwich ELISAs were utilized in order to detect each protein. The components for both sandwich ELISAs were purchased from R&D Systems and the provided protocols were followed. Platelet serum was diluted 10,000 times in 1% BSA in 1×PBS for values to fall within a linear range.
Platelet activation was measured through release of platelet factor 4 (PF4) and β-thromboglobulin (NAP2). […] Since the high SILY/DS ratio is expected to provide higher binding affinity to the collagen surface due to multiple interactions, peptidoglycans with the higher SILY/DS ratios were prepared.
The number of peptides per DS molecule was further increased to 18 to create the peptidoglycan DS-SILY18, and the concentration of molecule needed to inhibit platelet activation was tested. […] Within solubility limits, the number of peptides can be increased to achieve maximal platelet inhibition as well as to reduce diffusion over time, where a higher level of peptidoglycans on the denuded vessel wall is sustained.

Fibrillar collagen [3] = assay: Binding affinity of biotin labeled peptidoglycan to fibrillar collagen; details: biotin labeled peptidoglycans, fitted saturation binding curves
Experimental: Fibrillar collagen (Chronolog, Havertown, Pa.) was coated onto the surface of a 96-well high bind plate (Costar) at a concentration of 50 μg/mL diluted in isotonic glucose. Plates were covered and incubated overnight at 4° C. Unbound collagen was removed by rinsing 3 times with 1×PBS pH 7.4. Plates were then blocked with 1% BSA for 3 hours at room temperature. Peptidoglycan was dissolved at varying concentrations in 1×PBS pH 7.4 containing 1% BSA and were immediately added to the collagen surfaces, and allowed to incubate for 15 min at room temperature. Plates were then rinsed 3 times with 1×PBS pH 7.4 containing 1% BSA. Streptavidin-HRP solution (R&D Systems, Minneapolis, Minn.) was then added to the plates and incubated for 20 minutes at room temperature. […] The color evolving reaction was stopped with 50 μL 2N sulfuric acid and absorbance was measured at 450 nm using an M5 UV Vis Spectrophotometer (Molecular Devices). Plate imperfections (540 nm) were subtracted from absorbance values.
The binding affinities of biotin labeled peptidoglycans, labeled using protocols known in the art, DS-SILY4 and DS-SILY18 were calculated by fitting the saturation binding curves and calculating the inflection point. […]

[4] = test system: Human coronary artery endothelial cells (ECs); assay: Endothelial cell proliferation; type: cell-based; details: highest concentration tested (final concentrations 35, 3.5, and 0.35 μM); 48 hours
Experimental: Human coronary artery endothelial cells (ECs) (Lonza, Walkersville, Md.) were seeded in 96-well plates at a cell density of 1.5×10^3 cells/well. Cells were allowed to adhere to the surface for 24 hours and adherent ECs were stained using cell tracker green (Invitrogen, Carlsbad, Calif.). Initial cell number was determined by measuring fluorescence of each well with 492 nm excitation and 517 nm emission.
DS-SILY18 was solubilized in water at a concentration of […] and diluted in water 10 fold for concentrations of 175, 17.5, and 1.75 μM. The DS-SILY solution was diluted 5 fold with cell media for final concentrations of […]. The control consisted of diluting water 5 fold with cell media. 100 μL of media with DS-SILY was added to each well and the cell number was determined 48 hours later by measuring fluorescence. The percent change in cell number in each well was calculated.

[5] = test system: Whole blood on fibrillar collagen; assay: Inhibition of whole blood binding to collagen under flow; type: cell-based; details: 50 μM for 15 min; 5.6 mL/hr, shear rate 1000 s^−1, 5 min of flow
Experimental: Flow kits were obtained from Ibidi (Martinsried, Germany). Each channel was coated with fibrillar collagen as described for static microplate studies. Excess collagen was removed from the flow channel by extensive rinsing with 1×PBS through the channel. DS-SILY18 was incubated in the channel at a concentration of 50 μM for 15 min at 37° C., and unbound peptidoglycan was rinsed with 1×PBS. Control channels consisted of collagen not treated with peptidoglycan.
Whole blood was pushed through the flow channels by a syringe pump at a flow rate of 5.6 mL/hr, corresponding to a physiologically relevant shear rate of 1000 s^−1 (Badimon L, Badimon J J, Turitto V T, Vallabhajosula S, Fuster V. Platelet thrombus formation on collagen type I—a model of deep vessel injury—influence of blood rheology, von Willebrand Factor, and blood-coagulation. Circulation 1988; 78(6):1431-42). After 5 min of flow, 1×PBS pH 7.4 was pushed through at the same flow rate for 10 min to wash unbound cells. Brightfield images (n=3) were taken of each flow channel with a 10× objective. Images were thresholded and quantified for cellular coverage using ImageJ (NIH, Bethesda, Md.) and MatLab (Mathworks, Natick, Mass.) respectively. Control channels were assumed to have complete cellular coverage.

Kd (Fibrillar collagen [3]): 24 nM
Substance: DS-SILY18: dermatan sulfate with 18 peptides of the sequence RRANAALKAGELYKSILYGC linked to the glycan (RRANAALKAGELYKSILYGC-NH2; also: 18 copies linked to dermatan sulfate)
equivalent concentration remaining bound on collagen surface (Fibrillar collagen [1]): approximately 10 nM
concentration at which maximal inhibition of platelet activation was achieved [2]: 10 µM
endothelial cell proliferation (percent change in cell number) [4]: significant increase in cell proliferation
blood cell binding to collagen under flow [5]: inhibition; also recorded: much less blood cell binding to collagen
